Results reported in patent US20120077803A1, “Uses Of NK Receptor Antagonists” (NOVARTIS AG, priority 2009, published 2012).

Assays:
[1] = tested on: dogs with flea allergic dermatitis; test: Skin lesion scores (total lesion score) in dogs with flea-allergic dermatitis; format: in vivo, Beagle dogs; details: Prednisolone 10 mg/day orally
Description: (§1) Flea-allergic laboratory Beagle dogs are infested with fleas. Fifty (50) Ctenocephalides felis fleas, 18 to 20 days old are released on the back of every dog on D1. Dogs are combed 48 hours (D3) after infestation to reduce the number of fleas (reduction of allergen charge).
Skin observations: before flea infestations (D −1) all dogs are typically examined to establish a baseline score for erythema, papules, crusts, scales, alopecia, and excoriation. From D1, daily clinical observations are performed. Each lesion is typically graded using a scale from 0 to 3:
0=no signs 1=mild 2=moderate 3=severe
(§2) Skin lesions are allowed to develop until the total lesion score reaches ˜20. The Test Compound is then given orally at 50, 150 and 300 mg/day, divided into 2 doses, for 5 days. Prednisolone (10 mg/day, orally) is used as a comparator.
Erythema: is typically an acute clinical sign of cutaneous inflammation defined as redness of the skin caused by capillary congestion which can be aggravated by scratching. Excoriation: is typically a punctuate or linear abrasion produced by mechanical means, usually involving only the epidermis but not uncommonly reaching the papillary dermis. […] Papule: is typically a circumscribed, solid elevation with no visible fluid, varying in size from a pinhead to 1 cm. […], formed when there is a high break in the follicle wall. In the presence of bacteria, papules become pustules. Crusts: are typically dried serum, pus, or blood usually mixed with epithelial and sometimes bacterial debris. Scales: are dry or greasy laminated masses of keratin.
(§3) Lesion scores and Actical™ measurement values are typically observed on the following days: • Pre-value: before challenge with fleas • the day of challenge with fleas (Actical™ measurements only); • D1: the day when the total lesion score reached a sufficiently high value (average lesion score 20) and treatment of the animal started. • D2 to D6,
(§4) In the treatment group, lesion scores were taken from 8 dogs. Actical™ measurements were also taken from 6 of these dogs.
• Erythema*, • Excoriations*, • Papules/pustules • Self induced alopecia^o, and • Scales, • Erythema and excoriations are related to pruritus • Self induced alopecia is also related to pruritus but the improvement is […] after several weeks of treatment.
Day 1 of treatment when dogs reached a sufficient lesion score to initiate treatment (average 20). Pre-values (baseline).

[2] = tested on: dogs with flea allergic dermatitis; test: Pruritus intensity by Actical activity monitors in flea allergic dogs; format: in vivo, Beagle dogs; details: Prednisolone 10 mg/day orally; for Actical day, mean (standard deviation): 6am-6pm; for Actical night, mean (standard deviation): 6pm-6am
Description: as §1
Pruritus intensity: Pruritus intensity is evaluated using activity monitors (Actical™: Actiwatch™; Cambridge Neuorotechnology Ltd, Papworth Everard, UK) according to Nuttall and McEwan. (Nuttal T and McEwan N, “Objective measurement of pruritus in dogs: a preliminary study using activity monitors”. ESVD, 2006, 17 348-351). The physical activity monitors, mounted on collars, are placed around the dog's neck and tightened to the extent that they more with the skin but not so that they compress the underlying tissues. They were put on the dogs on D −5. […] This typically allows to see the difference in activity when the dogs have fleas and are developing pruritic and inflammatory lesions (i.e. dermatitis) and then again their activity during treatment with either the Test Compound or Prednisolone. The activity monitors are typically removed at the end of each phase on D12. Activity monitors measure the movement average within 15 seconds,
as §2, §3, §4

C[C@]12C=CC(=O)C=C1CC[C@@H]1[C@@H]2[C@@H](O)C[C@@]2(C)[C@H]1CC[C@]2(O)C(=O)CO [Prednisolone, reference compound]
Total score ctb (total lesion score compared to baseline), mean (standard deviation) ([1]; day 2): −5.6 (6.3) | Total score ctb (total lesion score compared to baseline), mean (standard deviation) ([1]; day 3): −7.9 (6.7) | Total score ctb (total lesion score compared to baseline), mean (standard deviation) ([1]; day 4): −9.2 (6.3) | Total score ctb (total lesion score compared to baseline), mean (standard deviation) ([1]; day 5): −9.9 (4.8) | Total score ctb (total lesion score compared to baseline), mean (standard deviation) ([1]; day 6): −11.8 (6.1) | Actical day, mean (standard deviation) ([2]; day 1 (treatment start)): 74 (20) Average activity counts every 15 secs | Actical day, mean (standard deviation) ([2]; day 2): 66 (50) Average activity counts every 15 secs | Actical day, mean (standard deviation) ([2]; day 3): 49 (33) Average activity counts every 15 secs | Actical day, mean (standard deviation) ([2]; day 4): 54 (22) Average activity counts every 15 secs | Actical day, mean (standard deviation) ([2]; day 5): 47 (24) Average activity counts every 15 secs | Actical day, mean (standard deviation) ([2]; day 6): 41 (14) Average activity counts every 15 secs | Actical day, mean (standard deviation) ([2]; fleas (day of challenge)): 74 (22) Average activity counts every 15 secs | Actical day, mean (standard deviation) ([2]; pre (before exposure to fleas)): 40 (10) Average activity counts every 15 secs | Actical night, mean (standard deviation) ([2]; Fleas (day of challenge)): 8.6 (3.5) Average activity counts every 15 secs | Actical night, mean (standard deviation) ([2]; Pre (before exposure to fleas)): 7.9 (4.4) Average activity counts every 15 secs | Actical night, mean (standard deviation) ([2]; day 1 (treatment start)): 16.2 (2.9) Average activity counts every 15 secs | Actical night, mean (standard deviation) ([2]; day 2): 6.8 (4.1) Average activity counts every 15 secs | Actical night, mean (standard deviation) ([2]; day 3): 5.1 (2.8) Average activity counts every 15 secs | Actical night, mean (standard deviation) ([2]; day 4): 7.3 (3.3) Average activity counts every 15 secs | Actical night, mean (standard deviation) ([2]; day 5): 4.8 (2.2) Average activity counts every 15 secs | Actical night, mean (standard deviation) ([2]; day 6): 5.3 (1.7) Average activity counts every 15 secs
